# Test results published in patent US10662193B2, “Carbazole and carboline compounds for use in the diagnosis, treatment, alleviation or prevention of disorders associated with amyloid or amyloid-like proteins” (AC IMMUNE SA, priority 2014, dated 2020).
# How the values were obtained:
# [1] = test system: tau tangles/Aβ plaques on AD brain sections; assay: Assay 1: direct staining of human Alzheimer's disease brain sections (fluorescence); format: binding; conditions: 100 μM; FIG. 1
# Summary of the method: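 Frozen […] amygdala sections from Braak V-VI AD donors, PFA-fixed, incubated with compound at 100 μM in 50% ethanol for 20 min at room temperature in the dark. Sudan Black quenched autofluorescence, then staining detected by fluorescence microscopy.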
# [2] = target: AD brain-enriched PHF (Homo sapiens, UniProt P10636); assay: Assay 2 (filter trap): radio-binding assay, determination of the dissociation constant (Kd) on PHF; conditions: tritiated ligand 1.25-50 nM, PHF diluted 1/80, 45 min 37° C.
# Experimental: Enrichment of Paired Helical Filaments (PHF's) from Human Alzheimer's Disease Brain
# 50 g of frontal lobe tissue from post-mortem brain of an Alzheimer's disease (AD) patient were obtained from the London Tissue Bank. The patient was a […] and died […]. The brain sample was collected 5 hours post-mortem and characterized for Braak disease stage (Braak, H.; Braak, E. Acta Neuropathol., 1991, 82, 239-259) as stage VI. […]
# AD brain-enriched PHF were diluted 1/80 (with an estimated tau concentration of 62.5 ng/ml and incubated with [^3H]RefA at different concentrations ranging from 50 nM to 1.25 nM. The reaction was performed in a final volume of 70 μL PBS with 2.8% DMSO, for 45 min at 37° C. 30 μL of samples in duplicates were then filtered under vacuum on a GF/B filter plate (PerkinElmer 6005177) to trap the PHF with the bound radio-ligand, and washed three times with PBS. The GF/B filters were then vacuum-dried, 20 μL scintillation liquid (PerkinElmer 1200-436) was added in each well, and the filters were analyzed on a Microbeta Trilux device. […] Specific binding was calculated by subtracting the non-specific signal to the total signal. […] The Kd values were calculated by nonlinear regression, one site specific binding using Prism V5 (GraphPad). […]
# [3] = target: T1, in vitro aggregated Abeta1-42 (Homo sapiens, UniProt P05067); assay: Assay 2 (filter trap): [3H]RefA radio-binding assay, Kd on aggregated Abeta1-42; conditions: Table 23; aggregated Abeta1-42 versus AD brain-enriched PHF
# T1 construct: Abeta1-42 (Bachem, Switzerland) peptide films were re-suspended in 1% DMSO; purchased Bachem, Switzerland
# Experimental: Preparation of Full-Length Tau and Abeta1-42 Aggregates
# Recombinant human full-length Tau441 (flTau) was expressed in bacteria and purified in the laboratory of Professor Hilal Lashuel (EPFL, Switzerland). A solution of 8 μM (400 μg/mL) flTau in PBS, 10 μM DTT and 5 μM heparin (all from Sigma-Aldrich) was gently mixed (cradled) for 3 days at 37° C. Cradled flTau aggregates were used at a final concentration of 20 μg/mL in all binding assays. Abeta1-42 (Bachem, Switzerland) peptide films were re-suspended in 1% DMSO and diluted in PBS to a 33 μM (150 μg/mL) suspension that was sonicated until complete dissolution. Aggregation process was done at 37° C. for 24 hours. […]
# AD brain-enriched PHF were diluted 1/80 (with an estimated tau concentration of 62.5 ng/ml and incubated with [^3H]RefA at different concentrations ranging from 50 nM to 1.25 nM. The reaction was performed in a final volume of 70 μL PBS with 2.8% DMSO, for 45 min at 37° C. 30 μL of samples in duplicates were then filtered under vacuum on a GF/B filter plate (PerkinElmer 6005177) to trap the PHF with the bound radio-ligand, and washed three times with PBS. The GF/B filters were then vacuum-dried, 20 μL scintillation liquid (PerkinElmer 1200-436) was added in each well, and the filters were analyzed on a Microbeta Trilux device. […] Specific binding was calculated by subtracting the non-specific signal to the total signal. […]
# [4] = test system: amyloid-beta; assay: Autoradiography on human brain sections with an 18F amyloid binding compound (selectivity); conditions: FIG. 13
# Experimental: 18 micron thick frozen human brain slices and 6 micron thick human FFPE brain slices from the frontal and/or temporal lobes of AD patients were examined via autoradiography. Brain sections were equilibrated for at least 1 h in 1×PBS solution prior to use in the experiment. Each brain section was covered with a solution of the F-18 labeled tracer (200 Bq/μl, 500 μl) in 1×PBS. For blocking experiments with the corresponding 19F-labeled compound, an excess of the blocking compound was mixed with the 18F-compound to yield an end concentration of 10 μM. The brain sections were allowed to incubate with the tracer solution at room temperature for 1 h, drained afterwards and placed in a slide holder. The slides were then washed sequentially with 1×PBS for 1 min; 70% EtOH in 1×PBS for 2 min; 30% EtOH in 1×PBS for 2 min; and 1×PBS for 1 min. The slides were allowed to air-dry before being placed on Fuji imaging plates for overnight exposure. The imaging plates were scanned and the signal was measured using Fuji software to produce an autoradiographic image of the brain section. Representative examples of autoradiography studies with ^18F-178, ^18F-189, ^18F-161, ^18F-95, ^18F-168, ^18F-146, ^18F-156, ^18F-159 are shown in FIGS. 9 to 12. […] Additionally, selectivity was determined by using a tracer binding to amyloid-beta.
# [5] = test system: human brain slices from the frontal and/or temporal lobes of AD patients; assay: Autoradiography with 18F-labeled compounds using human brain tissue; format: binding; conditions: FIG. 14; for competition with amyloid binding compound: block with an amyloid binding compound; for competition with corresponding cold compound: blocking compound 10 μM
# Experimental: Autoradiography Using Human Brain Tissue
# 18 micron thick frozen human brain slices and 6 micron thick human FFPE brain slices from the frontal and/or temporal lobes of AD patients were examined via autoradiography. Brain sections were equilibrated for at least 1 h in 1×PBS solution prior to use in the experiment. Each brain section was covered with a solution of the F-18 labeled tracer (200 Bq/μl, 500 μl) in 1×PBS. For blocking experiments with the corresponding 19F-labeled compound, an excess of the blocking compound was mixed with the 18F-compound to yield an end concentration of 10 μM. The brain sections were allowed to incubate with the tracer solution at room temperature for 1 h, drained afterwards and placed in a slide holder. The slides were then washed sequentially with 1×PBS for 1 min; 70% EtOH in 1×PBS for 2 min; 30% EtOH in 1×PBS for 2 min; and 1×PBS for 1 min. The slides were allowed to air-dry before being placed on Fuji imaging plates for overnight exposure. The imaging plates were scanned and the signal was measured using Fuji software to produce an autoradiographic image of the brain section. Representative examples of autoradiography studies with ^18F-178, ^18F-189, ^18F-161, ^18F-95, ^18F-168, ^18F-146, ^18F-156, ^18F-159 are shown in FIGS. 9 to 12.
# The specificity of the signals was confirmed by blocking with an excess of the corresponding non-radioactive compounds.
# Chain of AD brain-enriched PHF (P10636 623-708 limits assumed): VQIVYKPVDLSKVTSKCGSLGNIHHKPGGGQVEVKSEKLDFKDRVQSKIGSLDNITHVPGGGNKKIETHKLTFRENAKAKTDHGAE
# T1 sequence (P05067 672-713 limits assumed): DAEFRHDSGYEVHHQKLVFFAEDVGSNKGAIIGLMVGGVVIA
SMILES,competition with ^18F amyloid binding compound [4],competition with amyloid binding compound [5],competition with corresponding cold compound [5],other results
CNc1ccc(-c2ccc3ccc(O)cc3n2)cc1 [RefA],–,–,–,direct staining of tau tangles on AD brain section [1]: direct staining of tau tangles; Kd [2]: 35 nM; Fold increase on Abeta1-42 vs PHF [3]: 5
Cn1c2ccncc2c2ccc(Nc3cccc(OCC[18F])c3)nc21 [^18F-44],no competition,–,–,–
Cn1c2ccncc2c2ccc(Nc3cncc(OCC[18F])c3)nc21 [^18F-59],no competition,–,–,–
Cn1c2ccncc2c2ccc(N3CCC([18F])CC3)nc21 [^18F-161],–,no competition,Competition observed,–
Cn1c2ccncc2c2ccc(N3CCN(CC[18F])CC3)nc21 [^18F-168],–,no competition,Competition observed,–
